According to the supplement of paper PMC10307832:

How the values were obtained:
Assay in all cases: relative viability (nuclei count vs DMSO), 5 days (fraction); higher = more cells survive
[1] = compound: COc1cc2nccc(Oc3ccc(NC(=O)C4(C(=O)Nc5ccc(F)cc5)CC4)cc3)c2cc1OC [Cabozantinib] + C[C@@H](Oc1cc(-c2cnn(C3CCNCC3)c2)cnc1N)c1c(Cl)ccc(F)c1Cl [Crizotinib] (partner 1 µM)
Summary of the method: (§1)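 Lung cancer cell lines in 1536-well plates got either a single drug or a fixed anchor-drug dose together with five library-drug doses (not always all listed) in √10 steps, by pin tool, on the day after seeding. Nuclei were counted after 5 days, and relative viability is the treated-to-vehicle ratio of nuclei counts. Values are medians of duplicate plates.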

[2] = compound: COc1cc2nccc(Oc3ccc(NC(=O)C4(C(=O)Nc5ccc(F)cc5)CC4)cc3)c2cc1OC [Cabozantinib] + CC(C)C[C@H](NC(=O)[C@H](Cc1ccccc1)NC(=O)c1cnccn1)B(O)O [Bortezomib] (partner 0.002 µM)
Summary of the method: as §1

Cabozantinib + Dasatinib = compound: COc1cc2nccc(Oc3ccc(NC(=O)C4(C(=O)Nc5ccc(F)cc5)CC4)cc3)c2cc1OC [Cabozantinib] + Cc1nc(Nc2ncc(C(=O)Nc3c(C)cccc3Cl)s2)cc(N2CCN(CCO)CC2)n1 [Dasatinib] (partner 0.075 µM)
Summary of the method: as §1

Kobe2602 + Bortezomib = compound: C1=CC(=CC=C1NC(=S)NNC2=C(C=C(C=C2[N+](=O)[O-])C(F)(F)F)[N+](=O)[O-])F [Kobe2602] + CC(C)C[C@H](NC(=O)[C@H](Cc1ccccc1)NC(=O)c1cnccn1)B(O)O [Bortezomib] (partner 0.002 µM)
Summary of the method: as §1

| Cell Line | relative viability ([1]; first compound 0.02 µM) | relative viability ([1]; first compound 0.06325 µM) | relative viability ([1]; first compound 0.2 µM) | relative viability ([1]; first compound 0.6325 µM) | relative viability ([1]; first compound 2 µM) | relative viability ([2]; first compound 0.02 µM) | relative viability ([2]; first compound 0.06325 µM) | relative viability ([2]; first compound 0.2 µM) | relative viability ([2]; first compound 0.6325 µM) | relative viability ([2]; first compound 2 µM) | relative viability (Cabozantinib + Dasatinib; first compound 0.02 µM) | relative viability (Cabozantinib + Dasatinib; first compound 0.06325 µM) | relative viability (Cabozantinib + Dasatinib; first compound 0.2 µM) | relative viability (Cabozantinib + Dasatinib; first compound 0.6325 µM) | relative viability (Cabozantinib + Dasatinib; first compound 2 µM) | relative viability (Kobe2602 + Bortezomib; first compound 0.2 µM) | relative viability (Kobe2602 + Bortezomib; first compound 0.6325 µM) | relative viability (Kobe2602 + Bortezomib; first compound 2 µM) | relative viability (Kobe2602 + Bortezomib; first compound 6.325 µM) | relative viability (Kobe2602 + Bortezomib; first compound 20 µM) |
| --- | --- | --- | --- | --- | --- | --- | --- | --- | --- | --- | --- | --- | --- | --- | --- | --- | --- | --- | --- | --- |
| NCI-H1734 | 0.809 | 0.761 | 0.687 | 0.73 | 0.635 | 1.04 | 1.06 | 0.987 | 0.891 | 0.951 | 0.389 | 0.452 | 0.467 | 0.402 | 0.34 | 1.06 | 0.963 | 0.872 | 1.01 | 0.952 |
| LXF-289 | 0.858 | 0.857 | 0.392 | 0.805 | 0.818 | 1.09 | 1.03 | 1.01 | 0.956 | 1 | 0.126 | 0.206 | 0.155 | 0.117 | 0.0913 | 0.968 | 1.05 | 0.955 | 0.97 | 0.988 |
| SK-LU-1 | – | 0.941 | 0.772 | 0.872 | 0.857 | 1.06 | 1.78 | 1.39 | 0.905 | 1.1 | 0.138 | 0.164 | 0.174 | 0.155 | 0.156 | 1.38 | 1.55 | 1.18 | 1.37 | 1.61 |
| NCI-H2087 | 0.95 | 0.831 | 0.75 | 0.871 | 0.99 | 0.863 | 1.04 | 0.702 | 0.661 | 0.815 | 0.694 | 0.957 | 0.823 | 0.78 | 0.557 | 0.778 | 0.626 | 0.644 | 0.851 | 0.83 |
| HCC-78 | 0.326 | 0.356 | 0.288 | 0.351 | 0.318 | 0.409 | 0.436 | 0.339 | 0.227 | 0.21 | – | 0.431 | 0.185 | 0.195 | 0.217 | 0.543 | 0.574 | 0.446 | 0.244 | 0.57 |
| NCI-H2228 | 0.581 | 0.496 | 0.505 | 0.403 | 0.315 | 1.04 | 1.47 | 1.33 | 1.11 | 0.926 | 0.531 | 0.624 | 0.471 | 0.472 | 0.55 | 1.11 | 0.849 | 0.953 | 0.947 | 1.12 |
| H3255 | 0.922 | 0.927 | – | 0.974 | 0.931 | 0.75 | 0.958 | – | 0.831 | 0.901 | 0.382 | 0.513 | – | 0.459 | 0.309 | 0.691 | 0.782 | 0.743 | 0.818 | 0.766 |
| HCC-15 | 0.877 | 0.956 | 0.828 | 0.873 | 0.811 | 0.974 | 1.1 | 0.995 | 1.02 | 1.09 | 0.548 | 0.717 | 0.651 | 0.568 | 0.598 | 0.959 | 1.1 | 0.964 | 0.994 | 1.03 |
